Reference: patent US20130303509A1, “NAMPT INHIBITORS” (AbbVie Inc., priority 2012, published 2013)

Test system: PC3 cells
Experiment: NAMPT Cell Proliferation Assay
Type: cell-based
Details: Homo sapiens, PC-3, 120 h, 5 days incubation, cell viability by Cell Titer Glo
Summary of the method: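 Seeded at 500 cells/well in RPMI with 10% heat-inactivated FBS and left to attach overnight at 37° C, 5% CO2. Compounds were added as 10-fold dilutions […] for 5 days, then viability was read by CellTiter-Glo. IC50s came from sigmoidal fits of percent inhibition.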

Row | SMILES | IC50 [nM]
1 | O=C(Nc1ccc(S(=O)(=O)C2CCN(C(=O)C3CCCC3)CC2)cc1)C1CN(c2ccnnc2)C1 [Example 617, N-(4-{[1-(cyclopentylcarbonyl)piperidin-4-yl]sulfonyl}phenyl)-1-(pyridazin-4-yl)azetidine-3-carboxamide] | 1870
2 | Cc1c(F)cccc1C(=O)N1CCC(c2ccc(NC(=O)C3CN(c4cccnn4)C3)cc2)CC1 [Example 387, N-{4-[1-(3-fluoro-2-methylbenzoyl)piperidin-4-yl]phenyl}-1-(pyridazin-3-yl)azetidine-3-carboxamide] | 2.2
3 | CC(C)Cn1cc(-c2ccc(C(=O)N[C@@H]3CCN(c4ccc(Cl)nn4)C3)s2)cn1 [Example 619, N-[(3R)-1-(6-chloropyridazin-3-yl)pyrrolidin-3-yl]-5-[1-(2-methylpropyl)-1H-pyrazol-4-yl]thiophene-2-carboxamide] | > 10000
4 | COCC(=O)N1CC[C@@H](Oc2ccc(NC(=O)C3CN(c4ccnnc4)C3)cc2)C1 [Example 468, N-(4-{[(3R)-1-(methoxyacetyl)pyrrolidin-3-yl]oxy}phenyl)-1-(pyridazin-4-yl)azetidine-3-carboxamide] | 730
5 | O=C(Nc1ccc(OC2CCN(C(=O)C3CCOC3)CC2)cc1)[C@H]1CCN(c2cccnc2)C1 (stereo partly drawn) [Example 15, (3S)-1-(pyridin-3-yl)-N-(4-{[1-(tetrahydrofuran-3-ylcarbonyl)piperidin-4-yl]oxy}phenyl)pyrrolidine-3-carboxamide] | 34.7
6 | O=C(Nc1ccc(S(=O)(=O)C2CCN(C(=O)c3ccc(F)cc3F)CC2)cc1)C1CN(c2cccnn2)C1 [Example 586, N-(4-{[1-(2,4-difluorobenzoyl)piperidin-4-yl]sulfonyl}phenyl)-1-(pyridazin-3-yl)azetidine-3-carboxamide] | 107
7 | CCCC(=O)N1CCC(c2ccc(NC(=O)C3CN(c4cccnn4)C3)cc2)CC1 [Example 317, N-[4-(1-butanoylpiperidin-4-yl)phenyl]-1-(pyridazin-3-yl)azetidine-3-carboxamide] | 1.83

Other lines, results leading:

Row | IC50 [nM] | SMILES
8 | 3.61 | CC(C)(C)CC(=O)N1CCC(c2ccc(NC(=O)C3CN(c4ccnnc4)C3)c(F)c2)CC1 [Example 871, N-{4-[1-(3,3-dimethylbutanoyl)piperidin-4-yl]-2-fluorophenyl}-1-(pyridazin-4-yl)azetidine-3-carboxamide]
9 | 0.99 | CC(C)(C)C(=O)N1CC[C@@H](Oc2ccc(NC(=O)C3CN(c4cccnn4)C3)cc2)C1 [Example 523, N-(4-{[(3R)-1-(2,2-dimethylpropanoyl)pyrrolidin-3-yl]oxy}phenyl)-1-(pyridazin-3-yl)azetidine-3-carboxamide]
10 | 21.1 | O=C(Nc1ccc(OC2CCN(C(=O)CC(F)(F)F)CC2)cc1)C1CN(c2cccnc2)C1 [Example 55, 1-(pyridin-3-yl)-N-(4-{[1-(3,3,3-trifluoropropanoyl)piperidin-4-yl]oxy}phenyl)azetidine-3-carboxamide]
11 | 7.78 | O=C(Nc1ccc(C2CCN(C(=O)CC3CC3)CC2)cc1)C1CN(c2ccnnc2)C1 [Example 527, N-{4-[1-(cyclopropylacetyl)piperidin-4-yl]phenyl}-1-(pyridazin-4-yl)azetidine-3-carboxamide]
12 | 82.2 | COc1ccc(C(=O)N2CCC(S(=O)(=O)c3ccc(NC(=O)C4CN(c5cccnn5)C4)cc3)CC2)cc1 [Example 566, N-(4-{[1-(4-methoxybenzoyl)piperidin-4-yl]sulfonyl}phenyl)-1-(pyridazin-3-yl)azetidine-3-carboxamide]
13 | 712 | CC(C)Cn1cc(-c2ccc(C(=O)N[C@H]3CCN(c4cccnc4)C3)s2)cn1 [Example 608, 5-[1-(2-methylpropyl)-1H-pyrazol-4-yl]-N-[(3S)-1-(pyridin-3-yl)pyrrolidin-3-yl]thiophene-2-carboxamide]
14 | 87.9 | Cc1ncccc1N1CC(C(=O)Nc2ccc(C3CCN(C(=O)CC(F)(F)F)CC3)cc2)C1 [Example 182, 1-(2-methylpyridin-3-yl)-N-{4-[1-(3,3,3-trifluoropropanoyl)piperidin-4-yl]phenyl}azetidine-3-carboxamide]
